Results published in patent publication US20070027143A1, “Novel substituted 2,3-benzodiazepine derivatives” (priority 2003, published 2007).
Like-named read-outs stand apart in the source and are kept apart here.

Key:
[1] = test system: Lewis rats; assay: Autoimmune encephalomyelitis model, neurological (clinical) symptoms; format: in vivo; conditions: Rattus norvegicus, ip, 30 mg/kg ip., read-out: Neurological symptoms (change compared to controls, %)
Method: The compounds were administered intraperitoneally twice a day for 8 days, starting on day 10 after immunization and with an observation period until symptoms were present. 5-15 animals were used in each group. Their weights were 160-180 g (Lewis rats, female) and 180-220 g (Lewis rats, male). The activity of the compounds was determined according to the symptom score values, and compared to those of the control group (see Table 6). Histopathological investigations were carried out on the brain stem, the spinal cord, and the sciatic nerve (Gijbels et al., J. Clin. Invest. 94:2177 (1994)) using 5-10 animal/group.
Compounds of the invention were further investigated in the autoimmune encephalomyelitis model in rats as outlined in this description before, with the variance that 10 animals were used in each group, of weights 140-160 g (Lewis rats, female).

[2] = test system: CD1 mice; assay: Muscle relaxant activity, rotarod test; format: in vivo; conditions: Mus musculus, ip
[3] = test system: CD1 mice; assay: Muscle relaxant activity, inclined screen test; format: in vivo; conditions: Mus musculus, ip
[4] = test system: CD1 mice; assay: Anticonvulsant activity, 4-aminopyridine induced seizures; format: in vivo; conditions: Mus musculus, po, read-out: 4-AP ED50
Method: (§1) The anti-seizure activity of some of the compounds of the present invention was measured using the electroshock test (J. Pharmacol. Exp. Ther. 106:319 (1952)) and the results are shown in Table 3. The spasmolytic activity of the compounds of the present invention was investigated by using e.g., pentetrazole (J. Pharmacol. Exp. Ther. 108:168 (1953)), strychnine (J. Pharmacol. Exp. Ther. 129:75 (1960)), bemegrid, nicotine, bicuculline, 4-aminopyridine and mercapto-propionic acid for inducing the clonic-tonic seizures and lethality. The investigated compounds were administered orally in three doses using 10 male CD1 mice/dose, usually 60 min before the induction of seizures.

[5] = test system: CD1 mice; assay: Anti-tremor effect, oxotremorine induced tremor; format: in vivo; conditions: Mus musculus; po., Litchfield-Wilcoxon, limits in brackets; read-out: ED50, tremor induced by Oxotremorin 1 mg/kg ip.
[6] = test system: AMPA receptors; assay: Inhibition of AMPA induced spreading depression in isolated chicken retina; format: cell-based; conditions: AMPA (5 μM)
Method: (§2) In the first model the spreading depression caused by glutamate agonists (i.e., AMPA or kainate) was studied, while in the second one the transmembrane ion-current induced by the activation of the AMPA/kainate receptors was measured directly.
Inhibition of AMPA Induced “Spreading Depression” in Isolated Chicken Retina—
The AMPA antagonistic effect of the compounds of formula (I) or (II) was studied in the in vitro “spreading depression” model (Sheardown Brain Res. 607:189 (1993)). The AMPA antagonists prolong the latency of the development of the “spreading depression” caused by AMPA (5 μM).

[7] = test system: CD1 mice; assay: Anticonvulsant activity, bemegride induced seizures; format: in vivo; conditions: Mus musculus, po, read-out: Bemegride ED50
Method: as §1

[8] = test system: tumor cell types (colon adenocarcinoma, astrocytoma, breast carcinoma, lung carcinoma and neuroblastoma); conditions: Rzeski et al.; cited from earlier work
[9] = test system: CD1 mice; assay: Anticonvulsant activity, 3-mercapto-propionic acid induced seizures; format: in vivo; conditions: Mus musculus, po, read-out: 3-MPA ED50
Method: as §1

[10] = test system: CD1 mice; assay: Anticonvulsant activity, bicuculline induced seizures; format: in vivo; conditions: Mus musculus, po, read-out: Bicuculline ED50
Method: as §1

[11] = test system: CD1 mice; assay: Anticonvulsant activity, nicotine induced seizures; format: in vivo; conditions: Mus musculus; po.
Method: as §1

[12] = test system: CD1 mice; assay: Anti-tremor effect, GYKI 20039 induced tremor; format: in vivo; conditions: Mus musculus; po., Litchfield-Wilcoxon, limits in brackets; read-out: ED50, tremor induced by GYKI 20039 10 mg/kg ip.
[13] = test system: CD1 mice; assay: Anticonvulsant activity, strychnine induced seizures; format: in vivo; conditions: Mus musculus, po, read-out: Strychnine ED50
Method: as §1

[14] = test system: BN rats; assay: Airway eosinophilia of ovalbumin sensitized, antigen challenged BN rats (BALF eosinophil count); format: in vivo; conditions: 3.0 mg/kg po, 2 hours pre-challenge, mean ± SE
Description: (§3) Bronchial hyperresponsiveness (BHR) and airway eosinophilia (AEP) are characteristic features of bronchial asthma. BHR is typified by an exaggerated response to a wide variety of stimuli that can induce an increased resistance to airflow in the airways. AEP is a result of prolonged eosinophil infiltration, mast cell, and T cell activation in the airways. In actively (e.g., ovalbumin) immunized rats (e.g., Brown Norway [BN] strain), repeated sensitization followed by antigenic challenge results in lung eosinophilia and bronchial hyperresponsiveness to different spasmogens (e.g., acetylcholine). This is the most frequently employed model for studying potential anti-asthmatic effects of new chemical entities.
(§4) BN rats were actively immunized with allergen (ovalbumin). On day one, rats were sensitized with the subcutaneous administration of ovalbumin suspended in Al(OH)3 (2.5 μg ovalbumin +20 mg Al(OH)3 in 0.5 ml saline). Booster injections (same dose and same route) were given at day 14 and 21. Simultaneously at each occasion 0.25 ml of Bordatella pentussis vaccine was injected intraperitoneally. On day 28, animals were challenged by inhalation of the antigen (vaporized 1% OVA solution for 1 hour). Test compounds were administered orally 2 hours pre-challenge.
(§5) 48 hours following challenge, they were sacrificed by an overdose of urethane (4-5 ml of 15% urethane given i.p.), bronchoalveolar lavage fluid (BALF) was obtained, and tracheae dissected from the animals. Eosinophil cell count (cells/ml BALF) was determined manually using a selective stain for eosinophils and counting the cells in a Buerker chamber. BHR was determined using tracheal rings suspended in an organ bath. After an equilibration period of 30 minutes, cumulative concentration response curves to acetylcholine were determined. Maximal response of control (unchallenged, non-treated) tracheal rings is obtained at 10^−3 M acetylcholine. The height of this response is defined as 100%. All other contractions are expressed as a percentage and related to the control response.

[15] = test system: AMPA/kainate receptors; assay: Inhibition of AMPA induced whole-cell current in acutely isolated cerebellar Purkinje cells (patch clamp); format: cell-based; conditions: 5 μM AMPA, read-out: Inhibition of the ion-currents caused by 5 μM AMPA, IC50
Method: as §2
The activity of the compounds of the present invention was studied on acutely isolated cerebellar Purkinje cells by measuring the whole-cell current induced by 5 μM AMPA according for example to the method described by Bleakman et al (Neuropharmacology 12:1689 (1996)).

[16] = test system: CD1 mice; assay: Anti-tremor effect, harmaline induced tremor; format: in vivo; conditions: po., Litchfield-Wilcoxon, limits in brackets
[17] = test system: CD1 mice; assay: Anticonvulsant activity, maximal electroshock seizure (MES) test; format: in vivo; conditions: Mus musculus, po
Method: as §1

[18] = test system: CD1 mice; assay: Anticonvulsant activity, pentetrazole induced seizures; format: in vivo; conditions: Mus musculus, po, read-out: Pentetrazol ED50
Method: as §1

[19] = test system: BN rats; assay: Bronchial hyperresponsiveness of ovalbumin sensitized, antigen challenged BN rats (tracheal rings, acetylcholine); format: in vivo; conditions: 3.0 mg/kg po, 2 hours pre-challenge, mean ± SE
Description: as §3, §4, §5

## CC1=NN=C(c2ccc(N)cc2)c2cc3c(cc2C1)OCO3 [GYKI 52466, 5-(4-aminophenyl)-8-methyl-9H-1,3-dioxolo[4,5-h][2,3]benzodiazepine, reference compound]
[1]; female rats, 0-8 day
  change in vivo at 30 mg/kg: -45%
[1]; female rats, 0-14 day
  change in vivo at 30 mg/kg: -4%
[1]; male rats, 0-8 day
  change in vivo at 30 mg/kg: -1%
[1]; male rats, 0-14 day
  change in vivo at 30 mg/kg: -1%
[2]
  ED50: 25.1 mg/kg
[3]
  ED50: 47.1 mg/kg
[4]
  ED50: 43 mg/kg
[5]
  ED50: 20.5 mg/kg
[6]
  IC50: 9.5 µM
[7]
  ED50: 71.9 mg/kg
[8]
  Growth of selected tumor cell types: inhibit growth
[9]
  ED50: 47 mg/kg
[10]
  ED50: 35 mg/kg
[11]
  ED50: 71.8 mg/kg
[12]
  ED50: 37.1 mg/kg
[13]
  ED50: 86.7 mg/kg
[14]
  BALF eosinophil number: 0.91 ± 0.13 ×10^6/ml
[15]
  IC50: 8.8 µM
[16]
  ED50, tremor induced by Harmaline 40 mg/kg ip.: 38.5(25.7-57.9) mg/kg po.
[17]; 0.5 h, read-out: MES 30′ ED50
  ED50: 21.9 mg/kg
[17]; 1 h, read-out: MES (MES 60′) ED50
  ED50: 37.4 mg/kg
[18]
  ED50: 120 mg/kg
[19]
  MAX: relative contraction compared to the control at a maximal Ach concentration: 135 ± 105%
